How the values were obtained:
[1] = system: EHS-RBM pellet (angiogenic challenge); assay: In vivo EHS-RBM angiogenesis assay; parameters: species or system CD2/F1 mice
Method: (§1) To determine the effects of dietary CLA on angiogenesis, the in vivo angiogenesis model of Kibbey et al., 1992 was utilized. Briefly, CD2/F1 female mice were placed on diets with or without CLA at 8 or 12 weeks of age, with 10–12 mice per group per experiment. After 6 weeks of diet, mice were given bilateral injections of EHS-RBM containing 1.25 μg/ml bFGF and 60 μg/ml heparan sulfate using a 25-gauge needle, into the region of mammary gland four. Mice were sacrificed 7 days after injection. Blood was collected from the trunk for preparation of plasma for analysis of VEGF levels. Pellets and adjacent normal mammary gland tissue were removed and formalin fixed for paraffin embedding. This experiment was repeated four times.
Microsope visual fields, visualized with a 20× objective were analyzed for cellular invasion, and with a 40× objective for the presence of functional blood vessels, for a final magnification of 200 or 400×, respectively. The ability of dietary CLA to affect cellular invasion into the EHS-RBM pellet was analyzed on H&E-stained paraffin sections by counting the number of nuclei per field, excluding all acellular regions that remained uninvaded. A total of 68 fields were assessed in 13 pellets from mice on control diets, 75 fields were assessed from 9 pellets from mice on 1% CLA diets, and 62 fields analyzed from 13 pellets, obtained from mice on 2% CLA diets. We analyzed all pellets retrieved from the animals; there was a decline in the number of visible pellets in CLA-fed animals.
Functional angiogenesis was quantified by determining the number of cell-lined structures with patent lumen and red blood cells. H&E stained paraffin sections were visualized by epifluorescent illumination; red blood cells are strongly fluorescent due to their intensely eosinophilic cytoplasm. This intensity is easily distinguished from the dimly fluorescent nucleated cells. The relative dimness of nucleated cells may be partly due to the presence of nuclear and/or cytoplasmic hematoxylin, which quenches fluorescence. A total of 162 fields were analyzed from 21 slides from control diet animals, 158 fields were analyzed from 21 slides from 1% CLA diet animals, and 174 fields were analyzed from 13 slides from 2% CLA diet animals.

[2] = system: VEGF-A; assay: Serum VEGF analysis by ELISA after EHS-RBM challenge; assay type: in vivo, CD2/F1 mice; details: for reduction of average serum VEGF levels: 7 days after angiogenic challenge, relative to control diet
Method: as §1
Serum VEGF (VEGF-A) levels were assessed by ELISA using a commercial kit (Quantikine M mouse VEGF ELISA, R&D Systems), as per the manufacturer's instructions. VEGF levels were assessed in sera from mice which had been on diet for a total of 7 weeks, and had received EHS-RBM angiogenic challenge 1 week prior to sacrifice.

[3] = system: VEGF; assay: Western blot of VEGF in whole mammary gland lysates; assay type: in vivo, CD2/F1 mice; details: dietary CLA 7 weeks, no angiogenic challenge, dose-dependent
Method: (§2) Alternately, for analysis of whole mammary gland levels of VEGF and Flk-1, 10 mice per group were placed on diet at 8 weeks of age, and mice were sacrificed 7 weeks after diet initiation. Mammary glands were snap-frozen in liquid nitrogen to be utilized for preparation of whole gland lysates.
Whole mammary glands (gland four) were dissected after sacrifice from mice fed control- or CLA-supplemented diets, snap-frozen in liquid nitrogen and stored at −80° C. Lysates were prepared by pulverizing the frozen glands in a liquid nitrogen-cooled metal pulverizer to a fine powder. The powder was weighed in a pre-tared microfuge tube, and resuspended in ice-cold Triton X-100 lysis buffer (50 mM Tris, pH7.5 at room temperature, 250 mM NaCl, 5 mM EDTA, 0.1% (v/v) Triton X-100, supplemented with 0.1 mM PMSF, 20 ng/ml leupeptin and 100 ng/ml soybean trypsin inhibitor) using 2 ml per gram of tissue. The powder was then homogenized in an ice-cold microfuge tube, using 10–15 strokes of a fitted glass homogenizer. […] Lysates from 7 mice per dietary group were analyzed.
Lysates were loaded using equal protein per well, and proteins were separated on a 7.5% reducing SDS-gel according to the method of Laemmli well known in the art. […] Specific antibody-reactive bands were quantified by densitometry using a Model 300A Scanning Laser Densitometer and ImageQuant software (Molecular Dynamics).

[4] = system: Flk-1 (VEGF receptor 2); assay: Western blot of Flk-1 in whole mammary gland lysates; assay type: in vivo, CD2/F1 mice
Method: as §2
Whole mammary glands (gland four) were dissected after sacrifice from mice fed control- or CLA-supplemented diets, snap-frozen in liquid nitrogen and stored at −80° C. Lysates were prepared by pulverizing the frozen glands in a liquid nitrogen-cooled metal pulverizer to a fine powder. The powder was weighed in a pre-tared microfuge tube, and resuspended in ice-cold Triton X-100 lysis buffer (50 mM Tris, pH7.5 at room temperature, 250 mM NaCl, 5 mM EDTA, 0.1% (v/v) Triton X-100, supplemented with 0.1 mM PMSF, 20 ng/ml leupeptin and 100 ng/ml soybean trypsin inhibitor) using 2 ml per gram of tissue. The powder was then homogenized in an ice-cold microfuge tube, using 10–15 strokes of a fitted glass homogenizer. Samples were incubated on ice for 30 minutes, and then centrifuged for 10 min at 4° C. at 8,000×g. The supernatants were then aliquoted and frozen at −20° C. An aliquot of the sample was used to determine protein concentration, using the Bio-Rad protein assay. Immediately before electrophoresis, samples were prepared for loading by adding 4× Laemmli SDS-sample buffer at a 1:3 ratio to the thawed sample. The sample was then boiled, sonicated, and centrifuged for 10 min at 4° C., 8,000×g in a microfuge, before loading supernatant. Lysates from 7 mice per dietary group were analyzed.
Lysates were loaded using equal protein per well, and proteins were separated on a 7.5% reducing SDS-gel according to the method of Laemmli well known in the art. Proteins were transferred to nitrocellulose using a Bio-Rad Transblot Apparatus (Hercules, Calif.). Blots were blocked with Blotto (TBS (10 mM Tris, pH 8.0, 150 mM NaCl), 0.5% Tween 20, 5% (w/v) non-fat dry milk). All antibody incubations and subsequent rinses were performed in Blotto, with vigorous rocking. Rabbit anti-VEGF-A was used at a final concentration of 2 μg/ml, and rabbit anti-Flk-1 was used at a final concentration of 1 μg/ml. To control for variability in loading, the same blots used for VEGF were stripped and probed for Flk-1. The blots were then stripped again and probed with mouse antisera to hsc70, at a 1:20,000 final concentration. Hsc70 was used as a control for cellular protein loading of western blots, as a constitutively expressed cytoplasmic housekeeping protein. […] Specific antibody-reactive bands were quantified by densitometry using a Model 300A Scanning Laser Densitometer and ImageQuant software (Molecular Dynamics).

[5] = system: rat mammary stromal cells (MSC); assay: In vitro angiogenesis assay: microcapillary network formation on EHS-RBM; assay type: cell-based; details: 7 days in culture; for microcapillary network diameter: 75, 100 and 125 μM
Method: An in vitro angiogenesis assay, the formation of microcapillary networks by rat mammary stromal vascular precursor cells on the angiogenic substrate, EHS-RBM, was used to compare the isomer- and concentration-dependent effects of mixed CLA isomers and c9,t11- and t10,c12-CLA. Rat mammary stromal cells (MSC) have the ability to act as true vascular precursors and were isolated from mammary glands as described (Zangani et al., 1999).
CLA-containing media was prepared as follows. Briefly, 18.1 μl of 5N NaOH was added to 28.2 μl of CLA (0.9 g/ml, FW 280) in a small Erlenmeyer flask, followed by vortexing, to make the sodium salt. Warm fetal calf serum (10 ml) was added, sonicated 3–4× with brief pulses (5 sec each), and then gassed with nitrogen and the flask sealed with parafilm. The mixture was incubated in a sonicating water bath for 30 min, followed by 5 min incubation in a 50° C. water bath. FBS (11.9 ml) was added to the flask, to bring the CLA to a final 33× concentration (4.125 mM).
Early passage MSC (prior to passage 4) were cultured in a 24 well plate at 2×10^4 cells/well, plated onto 0.4 ml EHS-RBM in the presence of phenol red free F12/DME with 3% FCS, supplemented with 0, 25, 50, 75, 100 or 125 μM CLA. After 7 days in culture, when the cells had formed multiple colonies of three-dimensional networks of tubules (Zangani et al., 1999), capillary networks were photographed, and the extent of network formation was assessed by measuring four planar diameters, at 45° intervals, of the branching colonies. The five largest colonies in each of three wells per group were assessed, for a total of fifteen colonies for each concentration of CLA per experiment. This experiment was replicated twice.

[6] = system: mouse epidermal carcinogenesis; details: Ha et al, 1987; Belury et al, 1996; cited from earlier work
[7] = system: mouse forestomach neoplasia; details: Ha et al, 1990; cited from earlier work
[8] = system: rat mammary carcinogenesis; details: Ip et al, 1991, 1994, 1995; cited from earlier work
[9] = system: aberrant crypt foci in the rat colon; details: Liew et al, 1995; cited from earlier work
[10] = system: MDA-MB468 breast cancer cells and DU-145 prostatic tumor cells; details: MDA-MB468 and DU-145 cells in SCID mice; Visonneau et al, 1997; Cesano et al, 1998; cited from earlier work

For Conjugated Linoleic Acid [CLA], the “functional angiogenesis within the EHS pellet (structures containing red blood cells)” value ([1]; 1% CLA diet vs control diet) was “significantly decreased”, the “functional angiogenesis within the EHS pellet (structures containing red blood cells)” value ([1]; 2% CLA diet vs control diet) was “significantly decreased” and the “cellular invasion, number of nuclei per field in the invaded regions of the pellet” value ([1]; CLA-fed mice (1% or 2% CLA diet) vs control diet, 7 days after EHS-RBM injection) was “significantly decreased”. For the same compound, the “average measured depth of cellular infiltration of the pellet” value ([1]; CLA-fed vs control mice, data not shown) was “not different”, the “reduction of average serum VEGF levels” value ([2]; 1% CLA diet for 7 weeks) was “approximately 40%” and the “reduction of average serum VEGF levels” value ([2]; 2% CLA diet for 7 weeks) was “approximately 40%”. For the same compound, the “systemic effect on serum VEGF with or without angiogenic challenge” value ([2]; data not shown) was “only significant in mice stimulated by angiogenic challenge”, the “mammary gland VEGF 28 kDa band, densitometry normalized to hsc70” value [3] was “significantly decreased” and the “mammary gland VEGF 54 kDa band, densitometry normalized to hsc70” value [3] was “significantly decreased”. For the same compound, the “expression of Flk-1 protein on western blot” value ([4]; animals fed 2% CLA) was “uniformly low expression”, the “mammary gland Flk-1 60 kDa band, scanning densitometry” value ([4]; dietary CLA, dose-dependent) was “statistically significant decrease” and the “mammary gland Flk-1 200 kDa band, scanning densitometry” value ([4]; dietary CLA, dose-dependent) was “statistically significant decrease”. For the same compound, the “expression of Flk-1 protein on western blot” value ([4]; mice fed 1% CLA) was “variable expression”, the microcapillary network diameter [5] was “significantly decreased” and the “total number of colonies and size/extent of their branching” value ([5]; MSC on EHS-RBM) was “inhibited”. The “DMBA-induced mouse epidermal carcinogenesis” value [6] was “inhibit”, the “BP-induced mouse forestomach neoplasia” value [7] was “inhibit” and the “DMBA- and NMU-induced rat mammary carcinogenesis” value [8] was “inhibit”. The “incidence of aberrant crypt foci in the rat colon” value [9] was “inhibit” and the “size and metastatic spread of human tumor cells” value [10] was “reduce”.

In the case of CCCCCC/C=C/C=C\CCCCCCCC(=O)O [c9,t11-CLA, cis-9, trans-11 CLA], the microcapillary network diameter [5] is reported as “significantly decreased”.

With CCCCC/C=C\C=C\CCCCCCCCC(=O)O [t10,c12-CLA] the microcapillary network size ([5]; 100 and 125 μM) was “significant decreased”.
